Assay results reported in patent publication US10167257B2, “Indole derivatives for use in medicine” (IOmet Pharma Ltd., priority 2014, dated 2019).

Legend:
IDO (SKOV-3 cells) = molecular target: T1, IDO (SKOV-3 cells) (Homo sapiens, UniProt P14902); experiment: IDO cell-based assay (SKOV-3, IFNγ-induced), kynurenine production; conditions: SKOV-3 ovary adenocarcinoma cells, IFNγ 500 ng/ml, 500 μM L-Trp, 48 h, kynurenine by absorbance at 490 nm
T1 construct: This assay utilised cancer cells which expressed either TDO or IDO; host or cells: SKOV-3 ovary adenocarcinoma cells, IFNγ-induced
Summary of the method: (§1)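 Kynurenine output was read at 490 nm after 5 min with 1% Ehrlich's reagent, using supernatants from 48 h, 37 °C cultures containing 500 μM L-Trp and test compound. TDO activity came from A172 cells. IDO activity came from SKOV-3 cells, whose expression was induced by adding 500 ng/ml IFNγ.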

TDO (A172 cells) = molecular target: T2, TDO (A172 cells) (Homo sapiens, UniProt P48775); experiment: TDO cell-based assay (A172), kynurenine production; conditions: A172 human glioblastoma cells, 500 μM L-Trp, 48 h, kynurenine by absorbance at 490 nm
T2 construct: This assay utilised cancer cells which expressed either TDO or IDO; host or cells: A172 human glioblastoma cells
Summary of the method: as §1

T1 sequence (P14902 whole entry): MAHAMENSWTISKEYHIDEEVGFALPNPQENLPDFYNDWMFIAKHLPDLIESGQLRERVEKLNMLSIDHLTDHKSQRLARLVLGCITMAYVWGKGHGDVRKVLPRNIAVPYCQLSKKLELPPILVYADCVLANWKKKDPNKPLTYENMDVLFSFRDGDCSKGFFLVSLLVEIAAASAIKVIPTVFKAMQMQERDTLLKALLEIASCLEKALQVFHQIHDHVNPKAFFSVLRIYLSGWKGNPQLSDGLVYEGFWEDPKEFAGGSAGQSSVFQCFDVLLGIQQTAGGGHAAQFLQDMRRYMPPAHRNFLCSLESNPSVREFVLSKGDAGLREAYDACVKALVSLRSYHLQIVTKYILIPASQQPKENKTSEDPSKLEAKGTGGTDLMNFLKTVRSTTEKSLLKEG
T2 sequence (P48775 whole entry): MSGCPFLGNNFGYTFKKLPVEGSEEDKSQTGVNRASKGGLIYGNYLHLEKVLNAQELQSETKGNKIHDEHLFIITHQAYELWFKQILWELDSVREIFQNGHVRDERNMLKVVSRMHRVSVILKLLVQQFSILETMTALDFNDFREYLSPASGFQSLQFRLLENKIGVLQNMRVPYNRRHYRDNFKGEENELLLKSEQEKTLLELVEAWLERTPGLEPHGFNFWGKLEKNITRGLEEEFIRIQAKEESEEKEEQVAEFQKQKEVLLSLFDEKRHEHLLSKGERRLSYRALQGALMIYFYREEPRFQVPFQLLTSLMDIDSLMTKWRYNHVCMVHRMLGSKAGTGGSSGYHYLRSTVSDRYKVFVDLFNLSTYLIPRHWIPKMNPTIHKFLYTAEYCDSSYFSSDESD

IDO cellular assay (SKOV3) pIC50 (IDO (SKOV-3 cells)) | TDO cellular assay (A172) pIC50 (TDO (A172 cells)) | IC50 (IDO (SKOV-3 cells); read-out: IDO cellular assay (SKOV3) pIC50 (converted)) [µM] | IC50 (TDO (A172 cells); read-out: TDO cellular assay (A172) pIC50 (converted)) [µM] | SMILES
+ (+ = pIC50 4.50-<5.00) | − (− = pIC50 <4.50) | – | – | CC(NC(=O)c1cc2cc(F)ccc2[nH]1)c1cccnc1 (centres unmarked) [Compound 54]
+++ (+++ = pIC50 ≥5.50) | − (− = pIC50 <4.50) | – | – | C[C@@H](NC(=O)c1cc2cc(Cl)ccc2[nH]1)c1ccc(Cl)cc1 [Compound 72]
+ (+ = pIC50 4.50-<5.00) | − (− = pIC50 <4.50) | – | – | O=C(NCc1ccncc1)c1cc2cc(Cl)ccc2[nH]1 [Compound 5]
+++ (+++ = pIC50 ≥5.50) | − (− = pIC50 <4.50) | – | – | CC(NC(=O)c1cc2cc(Br)ccc2[nH]1)c1cnn(C)c1 (centres unmarked) [Compound 254]
+ (+ = pIC50 4.50-<5.00) | − (− = pIC50 <4.50) | – | – | C[C@@H](NS(=O)(=O)c1cc2cc(F)ccc2[nH]1)c1ccccc1 [Compound 127]
+ (+ = pIC50 4.50-<5.00) | − (− = pIC50 <4.50) | – | – | Cn1cc(C2(NC(=O)c3cc4cc(O)ccc4[nH]3)CC2)cn1 [Compound 211]
+++ (+++ = pIC50 ≥5.50) | +++ (+++ = pIC50 ≥5.50) | – | – | CC(NC(=O)c1cc2cc(C#N)ccc2[nH]1)c1ccccc1 (centres unmarked) [Compound 82]
+++ (+++ = pIC50 ≥5.50) | − (− = pIC50 <4.50) | – | – | Cn1cc(C2(NC(=O)c3cc4cc(Cl)ccc4[nH]3)COC2)cn1 [Compound 213]
+++ (+++ = pIC50 ≥5.50) | − (− = pIC50 <4.50) | – | – | CCOc1ccc2[nH]c(C(=O)NC(C)c3cnn(C)c3)cc2c1 (centres unmarked) [Compound 272]
+++ (+++ = pIC50 ≥5.50) | + (+ = pIC50 4.50-<5.00) | – | – | CC(C)C(NC(=O)c1cc2cc(Cl)ccc2[nH]1)c1ccccc1 (centres unmarked) [Compound 101]
+ (+ = pIC50 4.50-<5.00) | − (− = pIC50 <4.50) | – | – | C[C@@H](NC(=O)c1cc2cc(O)ccc2[nH]1)c1ccccc1 [Compound 181]
+++ (+++ = pIC50 ≥5.50) | − (− = pIC50 <4.50) | – | – | Cn1cc(C2(NC(=O)c3cc4c(F)c(Cl)ccc4[nH]3)CC2)cn1 [Compound 191]
++ (++ = pIC50 5.00-<5.50) | ++ (++ = pIC50 5.00-<5.50) | – | – | Cc1ccc(C(C)NC(=O)c2cc3ccccc3[nH]2)o1 (centres unmarked) [Compound 11]
+++ (+++ = pIC50 ≥5.50) | + (+ = pIC50 4.50-<5.00) | – | – | CC(NC(=O)c1cc2cc(Cl)ccc2[nH]1)c1cnn(-c2ccccc2F)c1 (centres unmarked) [Compound 115]
+++ (+++ = pIC50 ≥5.50) | − (− = pIC50 <4.50) | – | – | CC(C)C(NC(=O)c1cc2cc(F)ccc2[nH]1)c1cccs1 (centres unmarked) [Compound 23]
– | – | ≤ 3.16 | > 31.6 | Cn1cc(C2(NC(=O)c3cc4cc(Cl)ccc4[nH]3)CC2)cn1 [Compound 141]
+++ (+++ = pIC50 ≥5.50) | − (− = pIC50 <4.50) | – | – | O=C(NC1(c2ccccc2)COC1)c1cc2cc(Cl)cnc2[nH]1 [Compound 171]
+++ (+++ = pIC50 ≥5.50) | − (− = pIC50 <4.50) | – | – | O=C(NCc1ccc(Cl)cc1)c1cc2cc(Cl)ccc2[nH]1 [Compound 34]
+++ (+++ = pIC50 ≥5.50) | + (+ = pIC50 4.50-<5.00) | – | – | CC(NC(=O)c1cc2ccccc2[nH]1)c1ccccc1 (centres unmarked) [Compound 17]
++ (++ = pIC50 5.00-<5.50) | − (− = pIC50 <4.50) | – | – | O=C(NC(c1ccccc1)c1ccccc1)c1cc2cc(Cl)ccc2[nH]1 [Compound 237]
++ (++ = pIC50 5.00-<5.50) | − (− = pIC50 <4.50) | – | – | O=C(NC1(c2ccccc2)CC1)c1cc2ccc(C(F)F)cc2[nH]1 [Compound 189]
++ (++ = pIC50 5.00-<5.50) | − (− = pIC50 <4.50) | – | – | Cn1cc(C2(NC(=O)c3cc4cc(Cl)cnc4[nH]3)CC2)cn1 [Compound 177]

IDO cellular assay (SKOV3) pIC50 (IDO (SKOV-3 cells)) | TDO cellular assay (A172) pIC50 (TDO (A172 cells)) | IC50 (IDO (SKOV-3 cells); read-out: IDO cellular assay (SKOV3) pIC50 (converted)) [µM] | IC50 (TDO (A172 cells); read-out: TDO cellular assay (A172) pIC50 (converted)) [µM] | SMILES
++ (++ = pIC50 5.00-<5.50) | + (+ = pIC50 4.50-<5.00) | – | – | Cc1ccccc1C1CCN(CCNC(=O)c2cc3cc(Cl)ccc3[nH]2)C1 (centres unmarked) [Compound 118]
++ (++ = pIC50 5.00-<5.50) | + (+ = pIC50 4.50-<5.00) | – | – | C[C@H](NC(=O)c1cc2ccc(Cl)cc2[nH]1)c1ccccc1 [Compound 49]
++ (++ = pIC50 5.00-<5.50) | − (− = pIC50 <4.50) | – | – | COCCn1cc(C(C)NC(=O)c2cc3cc(Cl)ccc3[nH]2)cn1 (centres unmarked) [Compound 195]
+ (+ = pIC50 4.50-<5.00) | − (− = pIC50 <4.50) | – | – | CN(C)c1ncc2c(n1)CCC[C@H]2NC(=O)c1cc2cc(F)ccc2[nH]1 [Compound 8]
++ (++ = pIC50 5.00-<5.50) | − (− = pIC50 <4.50) | – | – | CC(NC(=O)c1cc2cc(F)ccc2[nH]1)c1ccncc1 (centres unmarked) [Compound 58]
+ (+ = pIC50 4.50-<5.00) | − (− = pIC50 <4.50) | – | – | CC(NC(=O)c1cc2cc(Cl)ccc2[nH]1)c1ccc(C(=O)N2CCN(C)CC2)cc1 (centres unmarked) [Compound 91]
+++ (+++ = pIC50 ≥5.50) | − (− = pIC50 <4.50) | – | – | COc1ccc(C(NC(=O)c2cc3ccccc3[nH]2)C2CC2)cc1 (centres unmarked) [Compound 18]
+++ (+++ = pIC50 ≥5.50) | + (+ = pIC50 4.50-<5.00) | – | – | O=C(NC1(C2CCOCC2)CC1)c1cc2cc(Cl)ccc2[nH]1 [Compound 144]
++ (++ = pIC50 5.00-<5.50) | + (+ = pIC50 4.50-<5.00) | – | – | Cc1ccc(C(C)NC(=O)c2cc3cc(F)ccc3[nH]2)o1 (centres unmarked) [Compound 24]
+ (+ = pIC50 4.50-<5.00) | + (+ = pIC50 4.50-<5.00) | – | – | Cc1c(C(=O)N[C@@H](C)c2ccccc2)[nH]c2ccc(F)cc12 [Compound 60]
+++ (+++ = pIC50 ≥5.50) | − (− = pIC50 <4.50) | – | – | CC(NC(=O)c1cc2cc(Cl)ccc2[nH]1)C1CCOCC1 (centres unmarked) [Compound 103]
++ (++ = pIC50 5.00-<5.50) | ++ (++ = pIC50 5.00-<5.50) | – | – | CC(NC(=O)c1cc2ccc(C#N)cc2[nH]1)c1ccccc1 (centres unmarked) [Compound 85]
+++ (+++ = pIC50 ≥5.50) | − (− = pIC50 <4.50) | – | – | Cn1cc(C2(NC(=O)c3cc4cc(Cl)ccc4[nH]3)CCC2)cn1 [Compound 215]
+++ (+++ = pIC50 ≥5.50) | − (− = pIC50 <4.50) | – | – | CCc1ccc2[nH]c(C(=O)NC(C)c3cnn(C)c3)cc2c1 (centres unmarked) [Compound 243]
+ (+ = pIC50 4.50-<5.00) | − (− = pIC50 <4.50) | – | – | O=C(NCc1ccc(F)c(Cl)c1)c1cc2cc(Cl)ccc2[nH]1 [Compound 35]
+ (+ = pIC50 4.50-<5.00) | − (− = pIC50 <4.50) | – | – | O=C(NC1CCOc2ccccc21)c1cc2ccccc2[nH]1 (centres unmarked) [Compound 74]
++ (++ = pIC50 5.00-<5.50) | − (− = pIC50 <4.50) | – | – | CC(NC(=O)c1cc2cccnc2[nH]1)c1ccccc1 (centres unmarked) [Compound 80]
++ (++ = pIC50 5.00-<5.50) | − (− = pIC50 <4.50) | – | – | COc1ccc2cc(C(=O)N[C@H](C)c3ccccc3)[nH]c2c1 [Compound 159]
++ (++ = pIC50 5.00-<5.50) | + (+ = pIC50 4.50-<5.00) | – | – | CC(NC(=O)c1cc2cc(Cl)ccc2[nH]1)c1cnoc1 (centres unmarked) [Compound 97]
+ (+ = pIC50 4.50-<5.00) | − (− = pIC50 <4.50) | – | – | CC(NC(=O)c1cc2cnccc2[nH]1)c1ccccc1 (centres unmarked) [Compound 79]
+++ (+++ = pIC50 ≥5.50) | − (− = pIC50 <4.50) | – | – | O=C(Nc1cccc2ccccc12)c1cc2ccc(F)cc2[nH]1 [Compound 65]
